Holding throughout (type): cell-based
Assay [1] has as its target T1, GSPT1 (Homo sapiens, UniProt P15170+Q96SW2). The assay is described as follows: HiBiT degradation assay, GSPT1, Procedure A. On the set-up: HiBit-GSPT1 KI HEK293(LgBit) Cells; host or cells: HEK293(LgBit) knock-in cells. The method in brief: (§1)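 Cells in DMEM+10% FBS at 1×10^6 cells/ml were added to pre-spotted compound (10-point dose response, 10 μM to 0.005 μM, 0.1% DMSO) and incubated 6 h at 37° C. Nano-Glo HiBiT lytic reagent was added and luminescence read. DC50 and Ymin came from 4-parameter curve fits.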

Assay [2] relates to Z-138 cells. The assay is described as follows: Z-138 Proliferation Assay (Cell Titer-Glo). The note with it: 72 hours; for Ymin (%): % remaining (percent of DMSO control); for EC50: Homo sapiens, Cell Titer-Glo, 4-parameter curve fit. On the procedure: Z-138 Proliferation Assay
Z-138 cells were cultured in IMDM Medium supplemented with 10% heat in-activated fetal bovine serum and 1% Penicillin-Streptomycin.
10 mM stocks of compound were made from fresh powder. DMSO was added to solid compound so that the final concentration was 10 mM. Compounds were vortexed and allowed to sit for 5 minutes to ensure complete solubility. Solvated compound was aliquoted into 1 ml Eppendorf tubes and stored in a −20° C. freezer.
Z-138 cells were maintained in culture using standard cell culturing techniques.
Cells were maintained at a density of 0.8×10^6 cells/ml.
Re-constitute cell titer-glo reagent according to manufacturer's protocol.
Z-138 cells were removed from culture and cell viability and density were determined using a CellDrop™ Automated Cell Counter with Tryphan blue stain according to manufacturer's protocols. Cells were centrifuged and resuspended using fresh media to a cell density of 0.1×10^6 cells/ml. […] 40 μl of cell suspension was added to the wells of a 384 well tissue culture plate (4,000 cells/well final). Upon completing the addition of the cells to the plate, the plates were centrifuged for 30 seconds at 300 rpms to help the cells settle and to bring air bubbles to the top of the wells. Air bubbles were popped using a pipette tip.
10-point dose response curves were performed using a D300e Digital Dispenser. The highest concentration of compound used in the assay was 10,000 nM. 1:2 dilutions were performed over a 10-point range with the final DMSO concentration being 0.1%. The cells were cultured for 72 hours in the presence of compound.
After 72 hours, the cell plates were removed from the incubator and allowed to equilibrate to room temperature (about 15 minutes). 20 μl of cell titer-glo reagent was added to each well of the 384 well plate. Incubated the plate for 30 minutes in the dark. After 30 minutes, ensured that there were no air bubbles in the plate (popped bubbles with pipette tip if necessary) and analyzed plate using a luminometer.
EC50 curves were generated using Prism Graph Pad. In brief, POCs (percent of control, compound/DMSO control×100) were plotted against the compound concentrations (log scale). EC50 curves were generated using a 4-parameter curve fit.
On the technique in general: ATP-based viability assays read luminescence as a measure of living cells.

Assay [3] concerns the target T2, CK1α (Homo sapiens, UniProt P48729+Q96SW2).
T2 construct: CSNK1A1-HiBit KI HEK293(LgBit) Cells; host or cells: HEK293(LgBit) knock-in cells
Kind of assay: HiBiT degradation assay, CK1α, Procedure A. Summed up:
as §1
For orientation: HiBiT is a short tag that completes a luciferase, so light tracks the accessible tagged protein.

Assay [4] concerns the target T1, GSPT1. Kind of assay: HiBiT degradation assay, GSPT1, Procedure B (Molt 4_hGSPT1_HiBIT cells). On the set-up: Molt 4_hGSPT1_HiBIT N-terminus tagged cells were generated using CRISPR technology; endogenous in cells; host or cells: Molt 4 cells, CRISPR-edited. To be noted: six hours. The method in brief:
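CRISPR N-terminal HiBiT-tagged Molt 4 cells at 1×10^6 cells/ml were treated 6 h at 37° C with compounds (10-point, 10 μM to 0.005 μM, 0.1% DMSO). Remaining HiBiT-GSPT1 was read by lytic luminescence; DC50 and Ymin (% remaining) from a 4-parameter fit.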

As a reminder, the DC50 is the concentration giving 50% degradation. A high value points to degradation only at high concentration. The EC50 is the concentration that produces a half-maximal response. A high value points to lower potency in that assay.

T2 sequence (P48729 whole entry): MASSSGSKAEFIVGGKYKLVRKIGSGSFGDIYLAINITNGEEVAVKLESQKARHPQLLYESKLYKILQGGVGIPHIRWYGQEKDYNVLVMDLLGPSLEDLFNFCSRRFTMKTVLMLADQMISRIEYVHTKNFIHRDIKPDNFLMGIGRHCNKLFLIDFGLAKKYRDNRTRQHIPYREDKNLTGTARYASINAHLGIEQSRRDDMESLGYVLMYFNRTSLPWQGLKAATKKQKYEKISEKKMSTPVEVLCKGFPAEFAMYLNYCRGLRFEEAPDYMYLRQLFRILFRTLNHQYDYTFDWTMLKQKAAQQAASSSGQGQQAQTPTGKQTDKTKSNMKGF
T2 sequence (Q96SW2 whole entry): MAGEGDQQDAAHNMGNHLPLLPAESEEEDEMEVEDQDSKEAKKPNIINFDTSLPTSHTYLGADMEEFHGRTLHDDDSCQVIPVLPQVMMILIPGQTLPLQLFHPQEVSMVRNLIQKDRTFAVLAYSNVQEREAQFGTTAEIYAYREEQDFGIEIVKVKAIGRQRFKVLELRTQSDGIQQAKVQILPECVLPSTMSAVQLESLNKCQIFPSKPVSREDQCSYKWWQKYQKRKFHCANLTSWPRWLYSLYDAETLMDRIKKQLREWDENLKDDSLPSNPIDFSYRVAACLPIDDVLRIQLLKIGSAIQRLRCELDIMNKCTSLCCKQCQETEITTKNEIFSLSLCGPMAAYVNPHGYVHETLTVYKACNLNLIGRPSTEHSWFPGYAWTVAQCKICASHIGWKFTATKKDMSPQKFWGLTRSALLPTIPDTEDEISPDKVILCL
T2 sequence (Q16531 whole entry partner): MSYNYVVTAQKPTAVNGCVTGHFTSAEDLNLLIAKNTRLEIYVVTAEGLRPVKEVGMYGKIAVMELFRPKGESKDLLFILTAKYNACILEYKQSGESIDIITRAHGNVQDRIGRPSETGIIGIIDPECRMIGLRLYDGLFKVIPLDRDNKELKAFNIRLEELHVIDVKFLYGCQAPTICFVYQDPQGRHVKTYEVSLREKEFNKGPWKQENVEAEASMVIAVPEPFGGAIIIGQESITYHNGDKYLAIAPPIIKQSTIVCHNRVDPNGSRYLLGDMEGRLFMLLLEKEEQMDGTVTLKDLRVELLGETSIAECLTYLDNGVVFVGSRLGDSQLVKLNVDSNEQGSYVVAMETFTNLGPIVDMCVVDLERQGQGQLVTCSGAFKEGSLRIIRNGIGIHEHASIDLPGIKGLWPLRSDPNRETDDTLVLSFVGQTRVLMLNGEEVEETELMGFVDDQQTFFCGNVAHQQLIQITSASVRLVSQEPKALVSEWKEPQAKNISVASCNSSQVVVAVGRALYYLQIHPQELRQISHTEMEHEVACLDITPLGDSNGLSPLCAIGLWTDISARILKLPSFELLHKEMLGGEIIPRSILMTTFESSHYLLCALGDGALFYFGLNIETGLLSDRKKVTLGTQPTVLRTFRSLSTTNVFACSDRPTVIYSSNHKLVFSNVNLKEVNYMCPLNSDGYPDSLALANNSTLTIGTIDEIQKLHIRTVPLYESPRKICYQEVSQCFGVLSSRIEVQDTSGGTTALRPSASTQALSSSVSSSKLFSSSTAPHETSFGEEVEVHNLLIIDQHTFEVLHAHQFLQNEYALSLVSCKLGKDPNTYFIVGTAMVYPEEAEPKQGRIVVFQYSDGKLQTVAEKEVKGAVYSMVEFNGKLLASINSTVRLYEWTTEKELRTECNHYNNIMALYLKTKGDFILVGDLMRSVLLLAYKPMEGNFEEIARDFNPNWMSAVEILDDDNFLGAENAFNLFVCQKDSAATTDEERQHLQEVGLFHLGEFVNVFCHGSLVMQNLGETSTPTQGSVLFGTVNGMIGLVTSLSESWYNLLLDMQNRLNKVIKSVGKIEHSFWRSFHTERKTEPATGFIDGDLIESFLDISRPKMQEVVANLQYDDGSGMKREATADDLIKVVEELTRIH
T1 sequence (P15170 whole entry): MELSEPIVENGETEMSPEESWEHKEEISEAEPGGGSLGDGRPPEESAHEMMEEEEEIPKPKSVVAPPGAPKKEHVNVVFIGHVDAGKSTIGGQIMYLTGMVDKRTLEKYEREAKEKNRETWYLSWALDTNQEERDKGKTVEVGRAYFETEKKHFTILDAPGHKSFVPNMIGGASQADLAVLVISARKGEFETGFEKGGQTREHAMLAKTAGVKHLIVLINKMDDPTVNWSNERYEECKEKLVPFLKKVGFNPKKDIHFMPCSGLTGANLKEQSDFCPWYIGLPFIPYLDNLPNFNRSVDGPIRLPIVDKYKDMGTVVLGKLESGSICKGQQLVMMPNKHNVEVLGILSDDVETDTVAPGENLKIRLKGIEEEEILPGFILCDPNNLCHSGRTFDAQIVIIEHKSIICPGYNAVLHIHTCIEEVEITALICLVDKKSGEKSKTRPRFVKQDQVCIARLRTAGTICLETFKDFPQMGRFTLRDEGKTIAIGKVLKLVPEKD
T1 sequence (Q96SW2 whole entry): as the sequence (Q96SW2 whole entry) above
T1 sequence (Q16531 whole entry partner): as the sequence (Q16531 whole entry partner) above

Take `COc1ccc(-c2c(-c3ccc4c(c3)CN(C3CCC(=O)NC3=O)C4=O)cnn2C(F)F)c(Cl)c1` (stereo not drawn) [Example 518, 3-(5-(5-(2-chloro-4-methoxyphenyl)-1-(difluoromethyl)-1H-pyrazol-4-yl)-1-oxoisoindolin-2-yl)piperidine-2,6-dione]: in assay [1] (six hours), the DC50 was less than 25 nM and the “GSPT1 Ymin” value is listed as “F (F = >75-100% remaining)”. In assay [2], the “Ymin (%)” value is listed as “D (0-10% remaining)” and the EC50 is 10 to 100 nM. In assay [3] (six hours), the “CK1α Ymin” value is given as “C (C = 0-10% remaining)” and the DC50 is less than 25 nM.

In the case of `Cc1ccc(-c2c(-c3ccc4c(c3)CN(C3CCC(=O)NC3=O)C4=O)cnn2C)cc1` (stereo not drawn) [Example 72], in assay [1] (six hours incubation), the DC50 was not below 25 nM and the “GSPT1 Ymin” value is “F (F = >75-100% remaining)”. Moreover, in assay [2], the “Ymin (%)” value is recorded as “E (>10-25% remaining)” and the EC50 lay within 10 to 100 nM. Further, in assay [3] (six hours incubation), the “CK1α Ymin” value was “D (D = >10- 25% remaining)” and the DC50 was less than 25 nM.

Turning to `Cn1cnc(-c2ccc3c(c2)CN(C2CCC(=O)NC2=O)C3=O)c1-c1ccc(F)c(C#N)c1` (stereo not drawn) [Example 184], in assay [1] (six hours incubation), the half-maximal degradation concentration (DC50) was not below 25 nM and the “GSPT1 Ymin” value is “C (C = 0-10% remaining)”. For the same compound, in assay [2], the “Ymin (%)” value is “D (0-10% remaining)” and the EC50 was 10 to 100 nM. Moreover, in assay [3] (six hours incubation), the “CK1α Ymin” value is recorded as “D (D = >10- 25% remaining)” and the DC50 is less than 25 nM.

As for `CC(C)n1nc(-c2ccc3c(c2)CN(C2CCC(=O)NC2=O)C3=O)nc1-c1ccccc1` (stereo not drawn) [Example 553, 3-(5-(1-isopropyl-5-phenyl-1H-1,2,4-triazol-3-yl)-1-oxoisoindolin-2-yl)piperidine-2,6-dione], in assay [1] (six hours), the DC50 is not below 25 nM and the “GSPT1 Ymin” value was “F (F = >75-100% remaining)”. For the same compound, in assay [2], the “Ymin (%)” value is on record as “D (0-10% remaining)” and the EC50 is 10 to 100 nM. Further, in assay [3] (six hours), the “CK1α Ymin” value is reported as “C (C = 0-10% remaining)” and the DC50 is less than 25 nM.

In the case of `Cc1nc(-c2ccc3c(c2)CN(C2CCC(=O)NC2=O)C3=O)c(-c2ccccc2)n1C` (stereo not drawn) [Example 14, 3-(5-(1,2-Dimethyl-5-phenyl-1H-imidazol-4-yl)-1-oxoisoindolin-2-yl)piperidine-2,6-dione], in assay [1] (six hours incubation), the DC50 is not below 25 nM and the “GSPT1 Ymin” value was “E (E = >25-75% remaining)”. In assay [2], the “Ymin (%)” value is on record as “D (0-10% remaining)” and the EC50 was less than 10 nM. Further, in assay [3] (six hours incubation), the “CK1α Ymin” value is listed as “C (C = 0-10% remaining)” and the DC50 is less than 25 nM.

On to `CN(C)Cc1ccc(-c2c(-c3ccc4c(c3)CN(C3CCC(=O)NC3=O)C4=O)ncn2C)cc1` (stereo not drawn) [Example 269], for which, in assay [1] (six hours incubation), the 50% degradation concentration (DC50) was less than 25 nM and the “GSPT1 Ymin” value is “F (F = >75-100% remaining)”. In assay [2], the “Ymin (%)” value was “D (0-10% remaining)” and the EC50 was less than 10 nM. Further, in assay [3] (six hours incubation), the “CK1α Ymin” value is listed as “C (C = 0-10% remaining)” and the DC50 was less than 25 nM.

For `Cn1cc(-c2ccccc2)nc1-c1ccc2c(c1)CN(C1CCC(=O)NC1=O)C2=O` (stereo not drawn) [Example 41, 3-(5-(1-Methyl-4-phenyl-1H-imidazol-2-yl)-1-oxoisoindolin-2-yl)piperidine-2,6-dione], in assay [1] (six hours incubation), the DC50 is not below 25 nM and the “GSPT1 Ymin” value is reported as “F (F = >75-100% remaining)”. For the same compound, in assay [2], the “Ymin (%)” value is “D (0-10% remaining)” and the EC50 lay in the range of 10 to 100 nM. For the same compound, in assay [3] (six hours incubation), the “CK1α Ymin” value is listed as “D (D = >10- 25% remaining)” and the DC50 is less than 25 nM.

In the case of `Cc1c(-c2ccccc2)c(-c2ccc3c(c2)CN(C2CCC(=O)NC2=O)C3=O)nn1C` (stereo not drawn) [Example 17, 3-(5-(1,5-Dimethyl-4-phenyl-1H-pyrazol-3-yl)-1-oxoisoindolin-2-yl)piperidine-2,6-dione], in assay [1] (six hours incubation), the 50% degradation concentration (DC50) is not below 25 nM and the “GSPT1 Ymin” value is recorded as “E (E = >25-75% remaining)”. In addition, in assay [2], the “Ymin (%)” value is on record as “D (0-10% remaining)” and the EC50 was less than 10 nM. In assay [3] (six hours incubation), the “CK1α Ymin” value is “C (C = 0-10% remaining)” and the DC50 was less than 25 nM.

Take `O=C1CCC(N2Cc3cc(-c4cn(C(F)F)c(-c5ccccc5)n4)ccc3C2=O)C(=O)N1` (stereo not drawn) [Example 421, 3-(5-(1-(difluoromethyl)-2-phenyl-1H-imidazol-4-yl)-1-oxoisoindolin-2-yl)piperidine-2,6-dione]: in assay [1] (six hours), the DC50 is not below 25 nM and the “GSPT1 Ymin” value is on record as “F (F = >75-100% remaining)”. Further, in assay [2], the “Ymin (%)” value is reported as “F (>25-50% remaining)” and the EC50 is 10 to 100 nM. For the same compound, in assay [3] (six hours), the “CK1α Ymin” value is reported as “C (C = 0-10% remaining)” and the DC50 is less than 25 nM.

Turning to `Cn1cc(-c2c(-c3ccc4c(c3)CN(C3CCC(=O)NC3=O)C4=O)nc(C3CC3)n2C)cn1` (stereo not drawn) [Example 46, 3-(5-(2-Cyclopropyl-1-methyl-5-(1-methyl-1H-pyrazol-4-yl)-1H-imidazol-4-yl)-1-oxoisoindolin-2-yl)piperidine-2,6-dione], in assay [1] (six hours incubation), the DC50 was not below 25 nM and the “GSPT1 Ymin” value is listed as “F (F = >75-100% remaining)”. Also, in assay [2], the “Ymin (%)” value is listed as “D (0-10% remaining)” and the EC50 is less than 10 nM. In assay [3] (six hours incubation), the “CK1α Ymin” value is recorded as “C (C = 0-10% remaining)” and the half-maximal degradation concentration (DC50) was less than 25 nM.

As to `Cn1ncc(-c2ccc3c(c2)CN(C2CCC(=O)NC2=O)C3=O)c1C1CCCCC1` (stereo not drawn) [Example 588], in assay [1] (six hours), the DC50 is not below 25 nM and the “GSPT1 Ymin” value was “F (F = >75-100% remaining)”. Moreover, in assay [2], the “Ymin (%)” value is on record as “F (>25-50% remaining)” and the EC50 fell in the range of 10 to 100 nM. In assay [3] (six hours), the “CK1α Ymin” value is “E (E = >25-75% remaining)” and the DC50 was less than 25 nM.

On to `Cn1c(-c2ccccc2)cnc1-c1ccc2c(c1)CN(C1CCC(=O)NC1=O)C2=O` (stereo not drawn) [Example 40, 3-(5-(1-Methyl-5-phenyl-1H-imidazol-2-yl)-1-oxoisoindolin-2-yl)piperidine-2,6-dione], for which, in assay [1] (six hours incubation), the DC50 is less than 25 nM and the “GSPT1 Ymin” value was “D (D = >10- 25% remaining)”. In assay [2], the “Ymin (%)” value is reported as “D (0-10% remaining)” and the EC50 was less than 10 nM. In addition, in assay [3] (six hours incubation), the “CK1α Ymin” value is recorded as “D (D = >10- 25% remaining)” and the DC50 is less than 25 nM.

For the compound `O=C1CCC(N2Cc3cc(-c4cc(-c5ccccc5)no4)ccc3C2=O)C(=O)N1` (stereo not drawn) [Example 43, 3-(1-Oxo-5-(3-phenylisoxazol-5-yl)isoindolin-2-yl)piperidine-2,6-dione], in assay [1] (six hours incubation), the DC50 is not below 25 nM and the “GSPT1 Ymin” value is “F (F = >75-100% remaining)”. Further, in assay [2], the “Ymin (%)” value is “F (>25-50% remaining)” and the EC50 was 100 to 500 nM. For the same compound, in assay [3] (six hours incubation), the “CK1α Ymin” value is recorded as “D (D = >10- 25% remaining)” and the DC50 was less than 25 nM.

Turning to `Cn1nc(-c2ccc3c(c2)CN(C2CCC(=O)NC2=O)C3=O)cc1-c1ccc(F)cc1` (stereo not drawn) [Example 488, 3-(5-(5-(4-fluorophenyl)-1-methyl-1H-pyrazol-3-yl)-1-oxoisoindolin-2-yl)piperidine-2,6-dione], in assay [2], the “Ymin (%)” value is given as “E (>10-25% remaining)” and the EC50 lay within 10 to 100 nM. Further, in assay [3] (six hours), the “CK1α Ymin” value is “D (D = >10- 25% remaining)” and the DC50 was less than 25 nM.

`Cn1cc(-c2ccc3c(c2)CN(C2CCC(=O)NC2=O)C3=O)nc1-c1ccc(Cl)c(F)c1` (stereo not drawn) [Example 661]: in assay [4], the DC50 was not below 25 nM and the “GSPT1 Ymin” value is “F (F = >75-100% remaining)”. Further, in assay [3] (six hours), the “CK1α Ymin” value was “E (E = >25-75% remaining)” and the DC50 is less than 25 nM.

Take `Cn1ncc(-c2ccc3c(c2)CN(C2CCC(=O)NC2=O)C3=O)c1C1=CCCCCC1` (stereo not drawn) [Example 697]: in assay [4], the DC50 is not below 25 nM and the “GSPT1 Ymin” value is “E (E = >25-75% remaining)”. For the same compound, in assay [3] (six hours), the “CK1α Ymin” value was “D (D = >10- 25% remaining)” and the DC50 was less than 25 nM.
